According to the NIST ThermoML archive (doi:10.1016/j.tca.2014.03.004):
± gives the expanded uncertainty stated by the source.

Test: mn = molality of the nth substance listed, in mol/kg
Conditions: 101.3 kPa, Liquid; for speed of sound: Sing-around technique in a fixed-path interferometer; for mass density: Vibrating tube method

N[C@@H](CCC(=O)O)C(=O)O [L-glutamic acid] + O
Conditions	mass density, m1 = 0.01 [kg/m3]	mass density, m1 = 0.02 [kg/m3]	mass density, m1 = 0.03 [kg/m3]	mass density, m1 = 0.04 [kg/m3]	mass density, m1 = 0.05 [kg/m3]	speed of sound, m1 = 0.01 [m/s]	speed of sound, m1 = 0.02 [m/s]	speed of sound, m1 = 0.03 [m/s]	speed of sound, m1 = 0.04 [m/s]	speed of sound, m1 = 0.05 [m/s]
298.15 K	997.642 ± 0.11	998.213 ± 0.11	998.786 ± 0.11	999.352 ± 0.11	999.936 ± 0.11	1497.4 ± 1.2	1498.1 ± 1.2	1498.9 ± 1.2	1499.6 ± 1.2	1500.3 ± 1.2
308.15 K	994.598 ± 0.11	995.178 ± 0.11	995.742 ± 0.11	996.302 ± 0.11	996.73 ± 0.11	1520.4 ± 1.2	1521 ± 1.2	1521.8 ± 1.2	1522.3 ± 1.2	1523.2 ± 1.2
318.15 K	990.784 ± 0.11	991.318 ± 0.11	991.875 ± 0.11	992.445 ± 0.11	993.001 ± 0.11	1537 ± 1.2	1537.7 ± 1.2	1538.1 ± 1.2	1539 ± 1.2	1539.3 ± 1.2

N[C@@H](Cc1ccc(O)cc1)C(=O)O [3-(p-hydroxyphenyl)-L-alanine] + O
Conditions	mass density, 298.15 K [kg/m3]	mass density, 308.15 K [kg/m3]	mass density, 318.15 K [kg/m3]	speed of sound, 298.15 K [m/s]	speed of sound, 308.15 K [m/s]	speed of sound, 318.15 K [m/s]
m1 = 0.000125	997.061 ± 0.11	994.051 ± 0.11	990.231 ± 0.11	1496.6 ± 1.2	1519.6 ± 1.2	1536.3 ± 1.2
m1 = 0.00025	997.068 ± 0.11	994.058 ± 0.11	990.238 ± 0.11	1496.8 ± 1.2	1519.7 ± 1.2	1536.5 ± 1.2
m1 = 0.0005	997.082 ± 0.11	994.072 ± 0.11	990.251 ± 0.11	1496.7 ± 1.2	1519.8 ± 1.2	1536.3 ± 1.2
m1 = 0.001	997.112 ± 0.11	994.101 ± 0.11	990.278 ± 0.11	1497.2 ± 1.2	1519.7 ± 1.2	1536.8 ± 1.2
m1 = 0.00125	997.125 ± 0.11	994.114 ± 0.11	990.29 ± 0.11	1496.8 ± 1.2	1520.2 ± 1.2	1536.4 ± 1.2
m1 = 0.0015	997.138 ± 0.11	994.126 ± 0.11	990.301 ± 0.11	1496.8 ± 1.2	1519.8 ± 1.2	1536.4 ± 1.2
m1 = 0.002	997.168 ± 0.11	994.152 ± 0.11	990.318 ± 0.11	1496.8 ± 1.2	1519.8 ± 1.2	1536.5 ± 1.2
